Laboratory results taken from US20110212100A1, “METHODS FOR MODULATING DEVELOPMENT AND EXPANSION OF IL-17 EXPRESSING CELLS” (priority 2007, published 2011).
Several values for one entry are separate records, joined by “and”; a condition that tells them apart may be missing. Equal values may be shown once.

Experiments:
[1] = tested on: FoxP3 expression in CD4+ CD25− T cells; test: Foxp3 (Treg marker) expression in TGFβ/IL-6 treated T cells; format: cell-based, mouse
Description: Low doses of halofuginone (HF) were tested to determine the ability of HF to enhance Treg differentiation, while suppressing Th17 differentiation. Nave. CD4+ T cells (CD4+ CD25−) were isolated from the spleen and peripheral lymph nodes of C57B/6 mice. T cells were then activated using anti-CD3 (0.3 μg/ml) and anti-CD28 (0.5 μg/ml) antibodies either in media alone (row 1, 4), TGFβ alone (3 ng/ml—row 2, 5) or TGFβ (3 ng/ml) plus IL-6 (30 ng/ml) (row 3, 6). […] T cells were cultured for 3 days and CD25 and Foxp3 expression (Treg marker genes) was determine by FACS staining and flow cytometric analyses. Simultaneously, T cells were harvested and re-stimulated for 4 hours using phorbol myristic acetate (PMA; 10 nM), Ionomycin (1 μM) and cytokine secretion was prevented using brefeldin A (20 μg/ml). Following stimulation, the production of IL-17 and IFNγ were determined by intracellular staining and analyzed via flow cytometry. […]
FACS analyses and sorting: All cell surface staining was performed in FACS buffer (PBS/2% FCS/0.1% NaN3) and antibodies were incubated with cells on ice for 20-30 minutes. […] All FACS data was acquired on a FACSCalibur flow cytometer (BD Pharmingen) and analyzed using FlowJo software (Treestar, Inc., Ashland, Oreg.). […]

RORγt = RORγt expression during Th17 differentiation (real-time PCR); format: cell-based, mouse; conditions: 10 nM HF
Description: T cells were harvested at the indicated times following activation, RNA was isolated and quantitative real-time PCR was performed using RORγt-specific primers and taqman probe. RORγt expression was normalized to Gapdh levels, and the data are presented as fold changes relative to naïve T cells.
Quantitative real-time PCR: T cells were activated as described above, collected at the indicated times and pellets were flash-frozen in liquid nitrogen. Total RNA was obtained by RNeasy (Quiagen, Valencia, Calif.) column purification per manufacturers instructions. RORγt expression was determined after reverse transcription using the message sensor kit (Ambion, Austin, Tex.) per manufacturers instructions and taqman primers and probe as described elsewhere (I. Ivanov, et al., Cell 126, 1121, 2006). Sybrgreen quantitative real-time PCR was performed on T cell RNA samples following reverse transcription via SuperScript II first-strand cDNA synthesis kit (Invitrogen, Carlsbad, Calif.). All PCR data was collected on an iCycler thermal cycler (Biorad, Hercules, Calif.). Primer sequences used for detecting stress response genes are listed below.

SV-MES mesangial cells = test: Stress response in fibroblasts (eIF2α western blot); format: cell-based; conditions: 20 nM HF, 2 hours
Description: SV-MES mesangial cells were stimulated for 2 hours with DMSO, 20 nM MAZ1310 or 20 nM HF. Whole cell lysates were analyzed for expression of phosphorylated or total eIF2α or GCN2 by western blotting.
Western blotting: Whole cell lysates were generated from T cells activated for the indicated times. For STAT3 and Smad2/3 western blots cells were harvested, washed in PBS and lysed in 50 mM Tris, pH 7.4, 0.1% SDS, 1% Triton-X100, 140 mM NaCl, 1 mM EDTA, 1 mM EGTA supplemented with protease inhibitors tablets (Roche-Germany), 1 mM NaF and 1 mM Na3VO4. For eIF2α and ATF4 western blots, cells were harvested as above and lysed in 50 mM Tris, pH 7.4, 2% SDS, 20% glycerol and 2 mM EDTA supplemented with protease and phosphatase inhibitors as above. All lysates were cleared via centrifugation and 15-30 μg of protein was resolved by SDS-PAGE. Protein was transferred to nitrocellulose membranes, blocked and blotted using specific antibodies. Antibodies used for western blot analysis were anti-phospho-Smad2, anti-STAT3 (pY705), anti-STAT3, anti-eIF2α^pS51, anti-eIF2α, anti-GCN2^pT898, anti-GCN2 (all from cell signaling technology, Danvers, Mass.). Anti-ATF4/CREB2 and anti-β-actin were purchased from Santa Cruz biotechnology (Santa Cruz, Calif.). […]

O=C(CC1NCCCC1O)Cn1cnc2cc(Br)c(Cl)cc2c1=O (racemic) [HF, 7-bromo-6-chloro-3-[3-(3-hydroxy-2-piperidinyl)-2-oxopropyl]-4(3H)-quinazolinone]
Foxp3 expression of T cells differentiated in the presence of HF, in words ([1]; 10 nM HF, TGFβ plus IL-6, day 3): enhanced Foxp3 expression | concentration increasing FoxP3 expression concomitantly with inhibiting IL-17 expression ([1]; TGFβ/IL-6 treated T-cells): 2.5 to 10 nM and 2.2 to 10 nM | effect on upregulation of RORγt or RORγ during Th17 differentiation, in words (RORγt): did not interfere with the upregulation of RORγt or RORγ | eIF2α phosphorylation in SV-MES mesangial cells, in words (SV-MES mesangial cells): increased eIF2α phosphorylation
